Test results from patent US5210193A, “Piperazine derivatives” (American Cyanamid Company, priority 1990, dated 1993).
≈ marks a conversion by molar mass, not a printed value. Read-outs that look alike come from different tables or passages of the source.

Legend:
Test in all cases: in vitro antibacterial MIC, agar plate dilution
Type in all cases: cell-based
[1] = tested on: Enterobacter cloacae K 84-10; settings: Enterobacter cloacae, K8410, 18 h, 35° C., read-out: MIC
Summary of the method: (§1)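 MIC, mcg/ml: lowest concentration with no visible growth after 18 h incubation at 35° C. Mueller-Hinton agar dilution plates; ~10^4 CFU inoculum via Steers replicating device.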

[2] = tested on: Enterobacter cloacae MOR 84-30; settings: Enterobacter cloacae, MOR8430, 18 h, 35° C., read-out: MIC
Summary of the method: as §1

[3] = tested on: Escherichia coli CMC 84-11; settings: Escherichia coli, CMC8411, 18 h, 35° C., read-out: MIC
Summary of the method: as §1

[4] = tested on: Escherichia coli CMC 84-50; settings: Escherichia coli, CMC8450, 18 h, 35° C., read-out: MIC
Summary of the method: as §1

Escherichia coli LL 311 = settings: Escherichia coli, LL311, 18 h, 35° C., read-out: MIC
Summary of the method: as §1

[5] = tested on: Escherichia coli MOR 84-20; settings: Escherichia coli, MOR8420, 18 h, 35° C., read-out: MIC
Summary of the method: as §1

[6] = tested on: Escherichia coli VGH 84-19; settings: Escherichia coli, VGH8419, 18 h, 35° C., read-out: MIC
Summary of the method: as §1

[7] = tested on: Klebsiella pneumoniae CMC 84-31; settings: Klebsiella pneumoniae, CMC8431, 18 h, 35° C., read-out: MIC
Summary of the method: as §1

[8] = tested on: Klebsiella pneumoniae IO 83-5; settings: Klebsiella pneumoniae, IO835, 18 h, 35° C., read-out: MIC
Summary of the method: as §1

[9] = tested on: Klebsiella pneumoniae MOR 84-24; settings: Klebsiella pneumoniae, MOR8424, 18 h, 35° C., read-out: MIC
Summary of the method: as §1

[10] = tested on: Morganella morganii CMC 84-37; settings: Morganella morganii, CMC8437, 18 h, 35° C., read-out: MIC
Summary of the method: as §1

[11] = tested on: Morganella morganii CMC 84-38; settings: Morganella morganii, CMC8438, 18 h, 35° C., read-out: MIC
Summary of the method: as §1

[12] = tested on: Morganella morganii MOR 84-45; settings: Morganella morganii, MOR8445, 18 h, 35° C., read-out: MIC
Summary of the method: as §1

[13] = tested on: Proteus rettgeri CMC 84-41; settings: Providencia rettgeri, CMC8441, 18 h, 35° C., read-out: MIC
Summary of the method: as §1

[14] = tested on: Proteus rettgeri IO 83-21; settings: Providencia rettgeri, IO8321, 18 h, 35° C., read-out: MIC
Summary of the method: as §1

[15] = tested on: Providencia stuarti CMC 83-3; settings: Providencia, CMC833, 18 h, 35° C., read-out: MIC
Summary of the method: as §1

[16] = tested on: Pseudomonas aeruginosa K 84-16; settings: Pseudomonas aeruginosa, K8416, 18 h, 35° C., read-out: MIC
Summary of the method: as §1

[17] = tested on: Pseudomonas aeruginosa LL-1244; settings: Pseudomonas aeruginosa, LL1244, 18 h, 35° C., read-out: MIC
Summary of the method: as §1

[18] = tested on: Pseudomonas aeruginosa VGH 84-3; settings: Pseudomonas aeruginosa, VGH843, 18 h, 35° C., read-out: MIC
Summary of the method: as §1

[19] = tested on: Serratia marcescens CMC 83-74; settings: Serratia marcescens, CMC8374, 18 h, 35° C., read-out: MIC
Summary of the method: as §1

[20] = tested on: Serratia marcescens IO 83-63; settings: IO8363, 18 hours, 35° C.
Summary of the method: as §1

[21] = tested on: Serratia marcescens MOR 84-41; settings: Serratia marcescens, MOR8441, 18 h, 35° C., read-out: MIC
Summary of the method: as §1

[22] = tested on: Serratia marcescens VGH 84-30; settings: Serratia marcescens, VGH8430, 18 h, 35° C., read-out: MIC
Summary of the method: as §1

[23] = tested on: Staphylococcus aureus ATTC 29213; settings: 35° C.
Summary of the method: as §1

[24] = tested on: Staphylococcus aureus K 82-26; settings: Staphylococcus aureus, K8226, 18 h, 35° C., read-out: MIC
Summary of the method: as §1

[25] = tested on: Staphylococcus aureus Smith; settings: Staphylococcus aureus, 18 h, 35° C., read-out: MIC
Summary of the method: as §1

[26] = tested on: Staphylococcus aureus VGH 84-45; settings: Staphylococcus aureus, VGH8445, 18 h, 35° C., read-out: MIC
Summary of the method: as §1

[27] = tested on: Staphylococcus aureus VGH 84-47; settings: Staphylococcus aureus, VGH8447, 18 h, 35° C., read-out: MIC
Summary of the method: as §1

[28] = tested on: Streptococcus faecalis UCI 85-19; settings: Enterococcus faecalis, UCI8519, 18 h, 35° C., read-out: MIC
Summary of the method: as §1

[29] = tested on: Streptococcus faecalis UCI 85-30; settings: Enterococcus faecalis, UCI8530, 18 h, 35° C., read-out: MIC
Summary of the method: as §1

[30] = tested on: Streptococcus faecalis VGH 84-65; settings: Enterococcus faecalis, VGH8465, 18 h, 35° C., read-out: MIC
Summary of the method: as §1

[31] = tested on: Streptococcus faecalis VGH 84-69; settings: Enterococcus faecalis, VGH8469, 18 h, 35° C., read-out: MIC
Summary of the method: as §1

[32] = Staphylococcus aureus, ATTC29213, 18 h, read-out: MIC

MIC [1] [µg/mL]	MIC [2] [µg/mL]	MIC [3] [µg/mL]	MIC [4] [µg/mL]	MIC (Escherichia coli LL 311) [µg/mL]	MIC [5] [µg/mL]	MIC [6] [µg/mL]	MIC [7] [µg/mL]	MIC [8] [µg/mL]	MIC [9] [µg/mL]	MIC [10] [µg/mL]	MIC [11] [µg/mL]	MIC [12] [µg/mL]	MIC [13] [µg/mL]	MIC [14] [µg/mL]	MIC [15] [µg/mL]	MIC [16] [µg/mL]	MIC [17] [µg/mL]	MIC [18] [µg/mL]	MIC [19] [µg/mL]	SMILES	other results
0.004 (≈ 0.0105 µM)	0.06 (≈ 0.157 µM)	0.015 (≈ 0.0393 µM)	0.004 (≈ 0.0105 µM)	0.015 (≈ 0.0393 µM)	0.004 (≈ 0.0105 µM)	0.004 (≈ 0.0105 µM)	0.015 (≈ 0.0393 µM)	0.06 (≈ 0.157 µM)	0.06 (≈ 0.157 µM)	0.03 (≈ 0.0787 µM)	0.008 (≈ 0.021 µM)	0.004 (≈ 0.0105 µM)	0.03 (≈ 0.0787 µM)	0.008 (≈ 0.021 µM)	4 (≈ 10.5 µM)	4 (≈ 10.5 µM)	4 (≈ 10.5 µM)	8 (≈ 21 µM)	4 (≈ 10.5 µM)	CN1CCN(c2c(F)c(F)c3c(=O)c(C(=O)O)cn(C4CC4)c3c2F)CC1 [Example 111, 1Cyclopropyl-5,6,8-trifluoro-1,4-dihydro-7-(4-methyl-1-piperazinyl) -4-oxo-3-quinolinecarboxylic acid]	MIC [20]: 0.25 µg/mL (≈ 0.656 µM); MIC [21]: 0.06 µg/mL (≈ 0.157 µM); MIC [22]: 2 µg/mL (≈ 5.24 µM); MIC [23, 32]: 0.25 µg/mL (≈ 0.656 µM); MIC [24]: 1 µg/mL (≈ 2.62 µM); MIC [25]: 0.25 µg/mL (≈ 0.656 µM); MIC [26]: 0.12 µg/mL (≈ 0.315 µM); MIC [27]: 0.12 µg/mL (≈ 0.315 µM); MIC [28]: 4 µg/mL (≈ 10.5 µM); MIC [29]: 2 µg/mL (≈ 5.24 µM); MIC [30]: 4 µg/mL (≈ 10.5 µM); MIC [31]: 2 µg/mL (≈ 5.24 µM)
0.06 (≈ 0.151 µM)	1 (≈ 2.52 µM)	0.03 (≈ 0.0755 µM)	0.12 (≈ 0.302 µM)	0.03 (≈ 0.0755 µM)	0.06 (≈ 0.151 µM)	0.06 (≈ 0.151 µM)	0.12 (≈ 0.302 µM)	0.25 (≈ 0.629 µM)	0.25 (≈ 0.629 µM)	0.06 (≈ 0.151 µM)	0.25 (≈ 0.629 µM)	0.12 (≈ 0.302 µM)	0.12 (≈ 0.302 µM)	0.5 (≈ 1.26 µM)	8 (≈ 20.1 µM)	4 (≈ 10.1 µM)	2 (≈ 5.03 µM)	16 (≈ 40.3 µM)	8 (≈ 20.1 µM)	O=C(O)c1cn(C2CC2)c2cc(N3CCNC(c4ccoc4)C3)c(F)cc2c1=O (centres unmarked) [Example 92]	MIC [20]: 1 µg/mL (≈ 2.52 µM); MIC [21]: 0.25 µg/mL (≈ 0.629 µM); MIC [22]: 4 µg/mL (≈ 10.1 µM); MIC ([23]; 18 hours): 0.12 µg/mL (≈ 0.302 µM); MIC [23, 32]: 0.06 µg/mL (≈ 0.151 µM); MIC [24]: 0.12 µg/mL (≈ 0.302 µM); MIC [25]: 0.03 µg/mL (≈ 0.0755 µM); MIC [26]: 0.03 µg/mL (≈ 0.0755 µM); MIC [27]: 0.12 µg/mL (≈ 0.302 µM); MIC [28]: 1 µg/mL (≈ 2.52 µM); MIC [29]: 1 µg/mL (≈ 2.52 µM); MIC [30]: 0.5 µg/mL (≈ 1.26 µM); MIC [31]: 1 µg/mL (≈ 2.52 µM)
